# Laboratory results published in patent EP2058306A1, “Heteroaryl-substituted 2-pyridinyl-methylamine derivatives” (SCHWARZ PHARMA AG, priority 2007, dated 2009).
# Read-outs that look alike come from different tables or passages of the source.
# What was measured:
# [1] = biological target: T1, dopamine D1 receptor (Sus scrofa, UniProt P50130); experiment: radioligand binding assay, dopamine D1 receptor, [3H]SCH 23390; settings: porcine striatum membranes, mean of two to five experiments in triplicate, read-out: Ki D1
# T1 construct: native membrane preparations from porcine striatum; from tissue; host or cells: porcine striatum
# T1 sequence (P50130 whole entry): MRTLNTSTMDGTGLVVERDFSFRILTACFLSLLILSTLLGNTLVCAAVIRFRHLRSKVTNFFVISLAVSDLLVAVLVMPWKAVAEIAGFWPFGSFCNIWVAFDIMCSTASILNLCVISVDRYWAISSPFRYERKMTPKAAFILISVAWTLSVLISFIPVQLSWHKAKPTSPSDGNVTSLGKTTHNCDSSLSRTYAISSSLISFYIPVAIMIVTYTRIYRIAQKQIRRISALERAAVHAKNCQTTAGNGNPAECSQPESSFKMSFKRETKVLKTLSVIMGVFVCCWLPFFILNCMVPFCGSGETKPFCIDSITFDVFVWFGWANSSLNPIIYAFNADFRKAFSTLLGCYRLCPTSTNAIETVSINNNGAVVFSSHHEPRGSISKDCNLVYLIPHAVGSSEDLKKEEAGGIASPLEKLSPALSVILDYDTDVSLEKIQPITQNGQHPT
# Description: (§1) Biological activity of the compounds has been determined in radioligand binding assays. These experiments have been done according to methods which are described in literature (Hübner, H. et al., J. Med. Chem. (2000), 43, 7562). For the determination of binding affinity to the receptors of the dopamine D2 family membranes were established carrying the human D2long, D2short, D3 or D4.4 receptor subtype stably expressed in Chinese hamster ovary cell lines. In principle, the binding experiments started when incubating an appropriate amount of membrane with the radioligand [^3H]spiperone and the particular test compounds used in a wide range of different concentrations from subnanomolar up to micromolar ones. In the same way, binding affinities of the test compounds to the dopamine D1 receptor were determined when using native membrane preparations from porcine striatum and the D1 selective radioligand [^3H]SCH 23390.
# (§2) The results of the binding experiments are summarized in Table 1 as mean values of two to five individual experiments each done in triplicate and expressed as Ki values in nM.
# [2] = biological target: human D2long, D2short (Homo sapiens, UniProt P14416); experiment: biochemical; format: binding; settings: CHO cell membranes, [3H]spiperone; mean of two to five experiments in triplicate; read-out: Ki D2
# Chain of human D2long, D2short (P14416 whole entry): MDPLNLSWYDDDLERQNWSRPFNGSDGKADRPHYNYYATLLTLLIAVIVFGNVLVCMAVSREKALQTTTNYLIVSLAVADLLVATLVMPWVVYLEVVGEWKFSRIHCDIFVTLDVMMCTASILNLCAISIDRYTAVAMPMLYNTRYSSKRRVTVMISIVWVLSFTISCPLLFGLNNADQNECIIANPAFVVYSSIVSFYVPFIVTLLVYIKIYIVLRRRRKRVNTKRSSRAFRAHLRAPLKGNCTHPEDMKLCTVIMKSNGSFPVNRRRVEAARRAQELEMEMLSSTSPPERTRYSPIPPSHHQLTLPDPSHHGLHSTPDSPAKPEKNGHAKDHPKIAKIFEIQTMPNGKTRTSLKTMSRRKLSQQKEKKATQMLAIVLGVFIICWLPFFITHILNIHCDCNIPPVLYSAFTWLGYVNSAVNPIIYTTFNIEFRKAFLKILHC
# Method: as §1, with “These” for “Biological activity of the compounds has been determined in radioligand binding assays. These”, “ones.” for “ones. In the same way, binding affinities of the test compounds to the dopamine D1 receptor were determined when using native membrane preparations from porcine striatum and the D1 selective radioligand [^3H]SCH 23390.”
# [3] = biological target: human D3 (Homo sapiens, UniProt P35462); experiment: radioligand binding assay, dopamine D3 receptor, [3H]spiperone; settings: CHO cell membranes, mean of two to five experiments in triplicate, read-out: Ki D3
# Chain of human D3 (P35462 whole entry): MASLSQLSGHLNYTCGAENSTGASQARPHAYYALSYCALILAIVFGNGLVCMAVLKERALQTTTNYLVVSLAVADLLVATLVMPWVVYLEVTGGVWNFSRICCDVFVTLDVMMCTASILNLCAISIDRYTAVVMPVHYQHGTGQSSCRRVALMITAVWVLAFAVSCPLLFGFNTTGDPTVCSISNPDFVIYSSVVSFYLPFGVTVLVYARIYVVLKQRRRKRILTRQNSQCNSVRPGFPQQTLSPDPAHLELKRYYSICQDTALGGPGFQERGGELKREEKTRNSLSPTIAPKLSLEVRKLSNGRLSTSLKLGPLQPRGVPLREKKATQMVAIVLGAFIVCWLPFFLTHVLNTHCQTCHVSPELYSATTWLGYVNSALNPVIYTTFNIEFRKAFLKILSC
# Method: as §1, with “These” for “Biological activity of the compounds has been determined in radioligand binding assays. These”, “ones.” for “ones. In the same way, binding affinities of the test compounds to the dopamine D1 receptor were determined when using native membrane preparations from porcine striatum and the D1 selective radioligand [^3H]SCH 23390.”
# [4] = biological target: T2, human D4.4 (Homo sapiens, UniProt P21917); experiment: radioligand binding assay, dopamine D4.4 receptor, [3H]spiperone; settings: CHO cell membranes, mean of two to five experiments in triplicate, read-out: Ki D4.4
# T2 sequence (P21917 1-419): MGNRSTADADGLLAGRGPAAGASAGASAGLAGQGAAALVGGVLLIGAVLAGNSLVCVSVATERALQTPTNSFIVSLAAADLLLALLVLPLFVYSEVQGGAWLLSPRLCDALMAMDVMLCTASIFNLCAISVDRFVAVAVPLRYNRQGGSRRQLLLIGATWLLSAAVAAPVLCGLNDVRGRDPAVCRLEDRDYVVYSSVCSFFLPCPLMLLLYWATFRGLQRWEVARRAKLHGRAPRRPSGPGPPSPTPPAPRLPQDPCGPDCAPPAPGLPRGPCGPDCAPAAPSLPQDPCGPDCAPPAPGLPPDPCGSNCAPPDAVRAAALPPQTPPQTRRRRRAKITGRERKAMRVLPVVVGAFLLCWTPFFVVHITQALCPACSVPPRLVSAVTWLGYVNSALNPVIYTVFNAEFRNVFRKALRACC
# Description: as §1, §2
# [5] = biological target: T3, 5-HT1A (Sus scrofa, UniProt A0A4X1UTF5); experiment: radioligand binding assay, serotonin 5-HT1A receptor, [3H]WAY 100635; settings: porcine cortex membranes, mean of two to five experiments in triplicate, read-out: Ki 5-HT1a
# T3 construct: membrane preparations from porcine cortex; from tissue; host or cells: porcine cortex
# T3 sequence (A0A4X1UTF5 1-422): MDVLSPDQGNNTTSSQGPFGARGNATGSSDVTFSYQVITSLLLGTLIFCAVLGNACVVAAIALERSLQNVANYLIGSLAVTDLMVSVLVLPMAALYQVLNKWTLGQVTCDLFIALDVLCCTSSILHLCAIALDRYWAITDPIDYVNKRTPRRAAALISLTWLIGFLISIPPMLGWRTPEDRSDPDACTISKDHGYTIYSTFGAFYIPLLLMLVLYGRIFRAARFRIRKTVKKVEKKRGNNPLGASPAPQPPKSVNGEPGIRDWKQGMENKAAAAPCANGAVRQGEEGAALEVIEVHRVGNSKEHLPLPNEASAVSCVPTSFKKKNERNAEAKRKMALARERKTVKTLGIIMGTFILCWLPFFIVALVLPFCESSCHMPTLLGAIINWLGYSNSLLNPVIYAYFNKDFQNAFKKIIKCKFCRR
# Method: (§3) The investigation of receptor binding to the serotonin and adrenergic receptors was done according to a published procedure (Heindl, C. et al., Tetrahedron: Asymmetry (2003), 14, 3141-3152). In detail, for the determination of the binding properties to serotonin receptors membrane preparations from porcine cortex was incubated with the 5-HT1A selective radioligand [^3H]WAY 100635 or with the 5-HT2 selective compound [^3H]ketanserin. The measurement of alpha-1 and alpha-2 receptor binding was achieved when utilizing porcine cortical membranes and the selective radioligands [^3H]prazosin (for alpha-1) and [^3H]RX821002 in an assay similar to that described above.
# as §2
# [6] = biological target: T4, 5-HT2 (Sus scrofa, UniProt P50129); experiment: radioligand binding assay, serotonin 5-HT2 receptor, [3H]ketanserin; parameters: species or system porcine
# T4 construct: membrane preparations from porcine cortex; from tissue; host or cells: porcine cortex
# T4 sequence (P50129 whole entry): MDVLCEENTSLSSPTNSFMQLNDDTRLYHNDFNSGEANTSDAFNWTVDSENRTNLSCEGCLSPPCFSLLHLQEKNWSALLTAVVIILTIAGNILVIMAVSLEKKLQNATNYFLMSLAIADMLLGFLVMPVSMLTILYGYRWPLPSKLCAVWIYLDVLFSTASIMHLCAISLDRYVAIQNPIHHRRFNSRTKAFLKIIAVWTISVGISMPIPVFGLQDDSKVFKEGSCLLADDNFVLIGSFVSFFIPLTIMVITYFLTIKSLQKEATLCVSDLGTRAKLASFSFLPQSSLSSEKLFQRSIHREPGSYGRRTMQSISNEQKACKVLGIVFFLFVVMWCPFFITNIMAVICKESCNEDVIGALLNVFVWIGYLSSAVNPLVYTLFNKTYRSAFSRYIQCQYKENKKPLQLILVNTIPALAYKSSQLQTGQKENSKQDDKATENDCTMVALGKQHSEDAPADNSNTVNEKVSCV
# [7] = biological target: alpha-1; experiment: radioligand binding assay, adrenergic alpha-1 receptor, [3H]prazosin; settings: porcine cortical membranes, mean of two to five experiments in triplicate, read-out: Ki alpha1
# Method: as §3, §2
# [8] = biological target: T5, human 5-HT1A receptor (Homo sapiens, UniProt P08908); experiment: [35S]GTPγS assay of functional activity at the 5-HT1A receptor; format: biochemical; settings: membranes from CHO cells expressing human 5-HT1A receptor; for 5-HT1A stimulated [35S]GTPγS binding intrinsic effect: % activity of serotonin; for EC50: read-out: 5-HT1A stimulated [35S]GTPγS binding EC50 value
# T5 construct: expressed in transfected cells
# T5 sequence (P08908 1-422): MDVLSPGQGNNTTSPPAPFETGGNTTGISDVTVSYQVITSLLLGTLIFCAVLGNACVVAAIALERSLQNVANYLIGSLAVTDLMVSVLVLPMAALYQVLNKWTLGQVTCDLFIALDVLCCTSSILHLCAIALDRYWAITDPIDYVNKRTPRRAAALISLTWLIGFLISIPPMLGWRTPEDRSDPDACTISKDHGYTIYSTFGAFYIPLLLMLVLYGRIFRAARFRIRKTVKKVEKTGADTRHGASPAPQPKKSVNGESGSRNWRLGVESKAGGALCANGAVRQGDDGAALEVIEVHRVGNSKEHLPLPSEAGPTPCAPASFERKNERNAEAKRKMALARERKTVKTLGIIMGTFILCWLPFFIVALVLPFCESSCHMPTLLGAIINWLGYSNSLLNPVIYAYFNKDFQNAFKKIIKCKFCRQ
# Method: In detail, membranes from CHO (Chinese hamster ovary) cells stably expressing the human 5-HT1A receptor were stimulated with an increasing concentration of test compounds used in a range of subnanomolar to micromolar concentrations in the presence of radioactive [^35S]GTPγ. The amount of bound radioactivity which indicates the amount of stimulation of the receptor was determined after transferring the membranes to filters by scintillation counting. Dose response correlations could be derived and the particular stimulation of the receptor was compared to the maximum effect of the reference compound and physiological ligand serotonin.
# Table 2: Intrinsic activities of the compounds of this invention at the serotonin 5-HT1A receptor determined in a [35S]GTPγS assay
# [9] = porcine cortex membranes, [3H]ketanserin, mean of two to five experiments in triplicate, read-out: Ki 5-HT2
Ki [1] [µM],Ki [2] [µM],Ki [3] [µM],Ki [4] [nM],Ki [5] [nM],Ki [7] [µM],5-HT1A stimulated [35S]GTPγS binding intrinsic effect [8],EC50 [8] [nM],Ki [6] [µM],Structure (SMILES),"Ki [6, 9] [µM]"
> 5,> 5,> 5,501 to 5000,< 50,> 5,D (D=full agonist (>75%)),< 50,> 5,"Cc1ccc(CNCC2(F)CCN(C(=O)c3ccc(C)s3)CC2)nc1 [Example E11, [4-Fluoro-4-[[(5-methylpyridin-2-ylmethyl)amino]methyl]piperidin-1-yl]-5-mothylthiophon-2-yl-mothanone]",–
> 5,> 5,> 5,501 to 5000,< 50,0.501 to 5,D (D=full agonist (>75%)),< 50,> 5,"Cc1ccc(CNCC2(F)CCN(C(=O)c3ccc(Br)s3)CC2)nc1 [Example E7, 5-Bromothion-2-yl-[4-fluoro-4-[[(5-mothylpyridin-2-ylmethyl)amino]methyl]-piperidin-1-yl]-methanone]",–
> 5,> 5,> 5,501 to 5000,< 50,0.501 to 5,D (D=full agonist (>75%)),< 50,> 5,"Cc1ccc(CNCC2(F)CCN(C(=O)c3sccc3Br)CC2)nc1 [Example E5, 3-Bromothien-2-yl-[4-fluoro-4-[[(5-mothylpyridin-2-ylmethyl)amino]mothyl]-piperidin-1-yl]-methanone]",–
> 5,> 5,> 5,501 to 5000,< 50,0.501 to 5,D (D=full agonist (>75%)),< 50,> 5,"Cc1ccc(CNCC2(F)CCN(C(=O)c3cc(C)cs3)CC2)nc1 [Example E10, [4-Fluoro-4-[[(5-methylpyridin-2-ylmethyl)amino]methyl]piparidin-1-yl]-4-methylthien-2-yl-mothanone]",–
> 5,> 5,> 5,501 to 5000,< 50,0.501 to 5,–,–,> 5,"COc1c(C(=O)N2CCC(F)(CNCc3ccc(C)cn3)CC2)csc1Br [Example E22, 5-Bromo-4-methoxythion-3-yl-[4-fluoro-4-[[(5-methylpyridin-2-ylmethyl)amino]methyl]piperidin-1-yl]-methanone]",–
> 5,> 5,> 5,> 5000,50 to 500,0.501 to 5,–,–,–,"Cc1ccc(CNCC2(F)CCN(C(=O)c3cnn4ccccc34)CC2)nc1 [Example E43, [4-Fluoro-4-[[(5-methylpyridin-2-ylmethyl)amino]methyl]piperidin-1-yl]-pyrazolo[1,5-a]pyridin-3-yl-methanone]",> 5
> 5,> 5,> 5,50 to 500,< 50,0.501 to 5,–,–,–,"Cc1ccc(CNCC2(F)CCN(C(=O)c3csc4ccccc34)CC2)nc1 [Example E25, Benzo[b]thien-3-yl-[4-fluoro-4-[[(5-methylpyridin-2-ylmethyl)amino]methyl]piperidin-1-yl]-methanone]",> 5
> 5,> 5,> 5,501 to 5000,< 50,0.501 to 5,–,–,–,"Cc1ccc(CNCC2(F)CCN(C(=O)c3scc4c3CCCC4)CC2)nc1 [Example E29, [4-Fluoro-4-[[(5-methylpyridin-2-ylmethyl)amino]methyl]pipendin-1-yl]-4,5,6,7-tetrahydrobenzo[c]thien-1-yl-methanone]",> 5

Structure (SMILES),Ki [1] [µM],Ki [2] [µM],Ki [3] [µM],Ki [4] [nM],Ki [5] [nM],Ki [7] [µM],5-HT1A stimulated [35S]GTPγS binding intrinsic effect [8],EC50 [8] [nM],Ki [6] [µM],"Ki [6, 9] [µM]"
"Cc1ccc(CNCC2(F)CCN(C(=O)c3sccc3C)CC2)nc1 [Example E9, [4-Fluoro-4-[[(5-methylpyridin-2-ylmethyl)amino]methyl]piperidin-1-yl]-3-methylthien-2-yl-methanone]",> 5,> 5,> 5,> 5000,< 50,> 5,D (D=full agonist (>75%)),< 50,–,> 5
"Cc1ccc(CNCC2(F)CCN(C(=O)c3cc(Br)cs3)CC2)nc1 [Example E6, 4-Bromothien-2-yl-[4-fluoro-4-[[(5-methylpyridin-2-ylmethyl)amino]methyl]-piperidin-1-yl]-methanone]",> 5,> 5,> 5,501 to 5000,< 50,0.501 to 5,D (D=full agonist (>75%)),< 50,–,> 5
"Cc1ccc(CNCC2(F)CCN(C(=O)c3sccc3Cl)CC2)nc1 [Example E3, 3-Chlorothien-2-yl-[4-fluoro-4-[[(5-methylpyridin-2-ylmethyl)amino]methyl]-piperidin-1-yl]-methanone]",> 5,> 5,> 5,501 to 5000,< 50,0.501 to 5,D (D=full agonist (>75%)),< 50,–,> 5
